What was measured:
CDK1/cyclin B = CDK1/cyclin B (Homo sapiens, UniProt P06493); test: Kinase assay CDK1/cyclin B (radioactive phosphate incorporation); format: biochemical; settings: Ki calculated (Cheng-Prusoff) from experimentally determined IC50 and Km,ATP; read-out: Kinase Inhibition Ki CDK1 - cyclin B
In short: (§1)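 Radiometric assays measured transfer of radioactive phosphate from ATP onto polypeptide substrates, using 2-4 μg recombinant active enzyme in buffer typically containing 25 mM β-glycerophosphate, 20 mM MOPS, 5 mM EGTA, 1 mM DTT and 1 mM Na3VO3 at pH 7.4. Reactions were stopped on ice, filtered on P81 or GF/C plates and washed with orthophosphoric acid. Incorporated radioactivity was scintillation-counted.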

[1] = Blood levels of test compounds in ZDF fa/fa rats; format: in vivo, rat; settings: 30 mg/kg per os twice; for concentration at 30 min / concentration at 60 min: male, rat, whole blood, oral; for concentration at 30 min / concentration at 60 min / Average Blood levels: ZDF fa/fa rats; for oral bioavailability (blood levels at 30 and 60 min after the glucose load): male ZDF fa/fa rats
Method: The ability of example compounds of the present invention to improve glucose metabolism was tested in 12-13 week old male ZDF fa/fa rats. The test animals (10-15 mmol/L fasting glucose level) were dosed twice at 30 mg/kg and the glucose challenge was given at time 0. […] Most of these blood levels were below the EC50 values determined in cellular assays.
12-13 weeks old male ZDF fa/fa rats were used to study the effect of example compounds on oral glucose tolerance. […] Body weight was recorded three times per week. Test compounds were dissolve in a formulation of 10% DMSO, 5% Tween, 5% Span 20, 30% PEG 400 and 50% water (v/v) to provide final solutions at 5 mg/mL concentration. Each experimental group contained 7 animals. After an 16 h overnight fast the test compounds were administered at 30 mg/kg per os twice (at −270 min and −30 min) before the oral glucose tolerance test was commenced (2 g glucose/kg per os as a 40% solution introduced via feeding tube). A control group was dosed in a similar manner with the vehicle only. Blood sampling for blood glucose measurement (20 μL blood) was performed at −270, 0, 15, 30, 60, 90, 120 and 180 min. Mixed venous blood was collected from the tail vein into 20-μL glass capillaries, which were placed in a standard tube filled with 1 mL solution for hemolysis. Glucose levels were measured using the glucose oxidase procedure (Super G Glukosemessgeraet; Dr Mueller Geraetebau, Freital, Germany). In addition, 50 μL blood samples were taken at 30 and 60 min after the glucose dose, placed in heparinized tubes, which were then frozen immediately in liquid nitrogen. The bioanalytical method used employed isocratic elution liquid chromatography—tandem mass spectrometry in electrospray positive ion multiple reaction monitoring mode.

CDK7/cyclin H = CDK7/cyclin H (Homo sapiens, UniProt P50613); test: Kinase assay CDK7/cyclin H; format: biochemical; settings: Ki calculated (Cheng-Prusoff) from experimentally determined IC50 and Km,ATP; read-out: Kinase Inhibition Ki CDK7 - cyclin H
In short: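 Radiometric filter assays used recombinant kinases or complexes (2-4 μg) with appropriate polypeptide substrates in pH 7.4 β-glycerophosphate/MOPS buffer. Reactions were started with 15 mM MgCl2 and 100 μM ATP containing [γ-32P]-ATP and run at 30° C. Phosphate incorporated into substrate was counted by scintillation after washing.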

CDK2/cyclin E = CDK2/cyclin E (Homo sapiens, UniProt P24941); test: Kinase assay CDK2/cyclin E; format: biochemical; settings: Ki calculated (Cheng-Prusoff) from experimentally determined IC50 and Km,ATP; read-out: Kinase Inhibition Ki CDK2 - cyclin E
In short: as §1

glycogen synthase = test: Glycogen synthase activation in rat myotubes; format: cell-based; settings: for EC50: Myotube; for Max FI (% to LiCl): maximum fold induction normalised to 40 mM LiCl
Method: Rat myotubes were differentiated from L6.G8.C5 myoblasts, which were grown in DMEM, 10% FCS and antibiotics until confluent. The medium was then removed, cells washed with PBS and differentiation medium containing minimal essential media eagles (alpha modified) supplemented with 2% FCS and antibiotics. The cells were cultured for 3-4 days until >90% of cells had formed multinucleated myotubes. The differentiated cells were then used for determination of glycogen synthase activation after treatment with GSK3 inhibitor example compounds.
HEK293 cells, mouse adipocytes or rat myotubes were treated in 10-cm Petri dishes with different concentrations of GSK3 inhibitor example compounds for 90 minutes. At the end of the treatment period the cells were washed and scraped in ice cold PBS buffer supplemented with 20 mM NaF. The cells were pelleted by centrifugation and lysed in 300 μL buffer (50 mM.HEPES pH 7.5, 10 mM EDTA, 100 mM NaF, 5 mM DTT, protease inhibitor cocktail (Sigma)). After incubation for 30 min on ice the samples were cleared by centrifugation. The activity of glycogen synthase was determined in the soluble fraction at two different concentrations of […]—low (0.1 mM) and high (10 mM). The reaction was carried out for 30 min (buffer: 50 mM Tris pH 7.8, 20 mM EDTA, 25 mM NaF, 5 mM DTT). The reaction mixture (total volume of 90 μL) contained 1% glycogen, 0.3 mM UDP-glucose and 0.06 μCi ^14C-UDP-glucose. Reaction was stopped by transfer of 70 μL to a GFC 96-well filter plate, containing 140 μL 100% ethanol and the glycogen was allowed to precipitate for 1 h at 4° C. The wells were washed 2 times with 200 μL 66% ethanol and than allowed to dry. Subsequently, 100 μL of scintillation liquid was added, and plates were sealed and counted in a Packard Topcounter. Glycogen synthase activation was calculated as the ratio between the incorporation of labelled ^14C-UDP-glucose in glycogen at low and high concentration of […] (fractional velocity).
The ability of GSK3 inhibitors to activate glycogen synthase was determined in HEK293 cells, mouse adipocytes and rat myotubed. The compounds tested activated glycogen synthase in all three cellular systems with EC50 values in the sub-micromolar to low micromolar concentration range. Most of them exceeded the stimulation induced by 40 mM LiCl (the highest compound concentration used in the assay was 20 μM).

Sequence of CDK1/cyclin B (P06493 whole entry, species assumed): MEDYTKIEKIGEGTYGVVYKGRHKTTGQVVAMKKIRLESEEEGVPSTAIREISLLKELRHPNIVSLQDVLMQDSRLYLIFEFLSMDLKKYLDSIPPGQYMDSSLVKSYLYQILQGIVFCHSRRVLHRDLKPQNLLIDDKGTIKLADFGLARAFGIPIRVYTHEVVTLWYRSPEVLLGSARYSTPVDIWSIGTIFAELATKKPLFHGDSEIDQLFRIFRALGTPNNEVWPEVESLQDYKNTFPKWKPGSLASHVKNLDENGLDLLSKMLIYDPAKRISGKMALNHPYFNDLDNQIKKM
Sequence of CDK1/cyclin B (P14635 whole entry partner, species assumed): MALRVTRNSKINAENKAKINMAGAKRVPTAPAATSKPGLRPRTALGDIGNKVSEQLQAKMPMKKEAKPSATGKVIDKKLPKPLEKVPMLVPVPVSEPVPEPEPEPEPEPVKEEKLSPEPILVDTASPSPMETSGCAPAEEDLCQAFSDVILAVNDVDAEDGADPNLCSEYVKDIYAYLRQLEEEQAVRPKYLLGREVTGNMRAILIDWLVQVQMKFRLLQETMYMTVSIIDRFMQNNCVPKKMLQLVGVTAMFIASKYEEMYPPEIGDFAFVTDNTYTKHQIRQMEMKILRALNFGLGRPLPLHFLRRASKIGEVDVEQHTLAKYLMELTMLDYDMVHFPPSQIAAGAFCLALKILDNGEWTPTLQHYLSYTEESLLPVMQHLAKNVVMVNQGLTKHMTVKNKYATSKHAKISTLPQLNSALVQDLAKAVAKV
Sequence of CDK7/cyclin H (P50613 whole entry, species assumed): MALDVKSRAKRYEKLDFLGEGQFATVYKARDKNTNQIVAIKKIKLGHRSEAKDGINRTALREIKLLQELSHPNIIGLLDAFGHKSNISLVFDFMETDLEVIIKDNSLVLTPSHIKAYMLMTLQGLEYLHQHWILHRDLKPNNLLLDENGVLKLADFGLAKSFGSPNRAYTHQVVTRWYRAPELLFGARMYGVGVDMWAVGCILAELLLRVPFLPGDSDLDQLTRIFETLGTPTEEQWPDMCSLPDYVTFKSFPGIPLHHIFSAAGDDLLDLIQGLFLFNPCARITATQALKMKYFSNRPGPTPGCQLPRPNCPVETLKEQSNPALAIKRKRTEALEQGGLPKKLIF
Sequence of CDK7/cyclin H (P51946 whole entry partner, species assumed): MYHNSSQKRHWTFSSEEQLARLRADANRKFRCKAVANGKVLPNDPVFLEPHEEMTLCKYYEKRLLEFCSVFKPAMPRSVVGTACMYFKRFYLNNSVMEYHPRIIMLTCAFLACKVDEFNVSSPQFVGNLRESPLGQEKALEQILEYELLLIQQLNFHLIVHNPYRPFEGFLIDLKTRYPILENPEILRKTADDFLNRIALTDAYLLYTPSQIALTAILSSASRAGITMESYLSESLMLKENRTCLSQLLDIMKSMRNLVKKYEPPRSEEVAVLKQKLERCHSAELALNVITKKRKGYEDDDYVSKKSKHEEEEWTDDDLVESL

Compound	Ki (CDK1/cyclin B)	concentration at 30 min ([1]; time 30 min)	concentration at 60 min ([1]; time 60 min)	Ki (CDK7/cyclin H)	Ki (CDK2/cyclin E)	EC50 (glycogen synthase)	oral bioavailability (blood levels at 30 and 60 min after the glucose load) [1]	Max FI (% to LiCl) (glycogen synthase)	Average Blood levels ([1]; time 30 min)	Average Blood levels ([1]; time 60 min)
CCNS(=O)(=O)c1cccc(Nc2nccc(-c3sc(=O)n(C)c3C)n2)c1 [Compound 62, 3-[4-(3,4-Dimethyl-2-oxo-2,3-dihydro-thiazol-5-yl)-pyrimidin-2-ylamino]-N-ethyl-benzenesulfonamide]	430 nM	27.6 ng/mL	29.7 ng/mL	1100 nM	350 nM	1610 ± 199 nM	–	130 % to LiCl	–	–
CC(=O)Nc1cc(Nc2nccc(-c3sc(=O)n(C)c3C)n2)cc(C(F)(F)F)c1 [Compound 64, N-{3-[4-(3,4-Dimethyl-2-oxo-2,3-dihydro-thiazol-5-yl)-pyrimidin-2-ylamino]-5-trifluoromethyl-phenyl}-acetamide]	870 nM	248 ng/mL	268 ng/mL	3900 nM	–	1240 ± 610 nM	some oral bioavailability	152 % to LiCl	–	–
Cc1c(-c2ccnc(Nc3cc(Br)cc(C(F)(F)F)c3)n2)sc(=O)n1C [Compound 68, 5-[2-(3-Bromo-5-trifluoromethyl-phenylamino)-pyrimidin-4-yl]-3,4-dimethyl-3H-thiazol-2-one]	–	115 ng/mL	70.1 ng/mL	–	–	–	some oral bioavailability	–	–	–
CNc1cc(Nc2nccc(-c3sc(=O)n(C)c3C)n2)cc(C(F)(F)F)c1 [Compound 76, 3,4-Dimethyl-5-[2-(3-methylamino-5-trifluoromethyl-phenylamino)-pyrimidin-4-yl]-3H-thiazol-2-one]	–	–	–	800 nM	89 nM	–	–	–	43.0 ng/mL	48.1 ng/mL

More lines, main results first:

Ki (CDK1/cyclin B)	concentration at 30 min ([1]; time 30 min)	concentration at 60 min ([1]; time 60 min)	Ki (CDK7/cyclin H)	Ki (CDK2/cyclin E)	EC50 (glycogen synthase)	oral bioavailability (blood levels at 30 and 60 min after the glucose load) [1]	Compound	Max FI (% to LiCl) (glycogen synthase)	Average Blood levels ([1]; time 30 min)	Average Blood levels ([1]; time 60 min)
620 nM	–	–	370 nM	380 nM	8490 ± 2480 nM	–	Cc1c(-c2ccnc(Nc3cccc(S(=O)(=O)NCCO)c3)n2)sc(=O)n1C [Compound 75, 3-[4-(3,4-Dimethyl-2-oxo-2,3-dihydro-thiazol-5-yl)-pyrimidin-2-ylamino]-N-(2-hydroxy-ethyl)-benzenesulfonamide]	157 % to LiCl	–	–
–	350 ng/mL	271 ng/mL	360 nM	–	10500 ± 990 nM	some oral bioavailability	COCCNS(=O)(=O)c1cccc(Nc2nccc(-c3sc(=O)n(C)c3C)n2)c1 [Compound 67, 3-[4-(3,4-Dimethyl-2-oxo-2,3-dihydro-thiazol-5-yl)-pyrimidin-2-ylamino]-N-(2-methoxy-ethyl)-benzenesulfonamide]	112 % to LiCl	–	–

From patent US7902361B2, “Pyrimidin-4-yl-3, 4-thione compounds and their use in therapy” (Cyclacel Limited, priority 2003, dated 2011)
